Measurements as given in US12090163B2, “Pharmaceutical compositions” (CIPLA LIMITED, priority 2017, dated 2024).
Where a name gives a salt, the structure may show the parent alone.

How the values were obtained:
[1] = Compound cytotoxicity in PBMC assay plates by MTS; assay type: cell-based; conditions: human, PBMCs, listed as of isolate JV-1083
Procedure: Fresh human PBMCs, seronegative for HIV and HBV, were isolated from screened donors (Biological Specialty Corporation, Colmar, PA). Cells were pelleted/washed 2-3 times by low speed centrifugation and re-suspension in PBS to remove contaminating platelets. The Leukophoresed blood was then diluted 1:1 with Dulbecco's Phosphate Buffered Saline (DPBS) and layered over 15 mL of Ficoll (GE Healthcare #17-1440-02) in 50 mL centrifuge tube and then centrifuged for 30 minutes at 600×g. Banded PBMCs were gently aspirated from the resulting interface and subsequently washed 2× with PBS by low speed centrifugation. […] Pooling (mixing) of mononuclear cells from more than one donor was used to minimize the variability observed between individual donors, which results from quantitative and qualitative differences in HIV infection and overall response to the PHA and IL-2 of primary lymphocyte populations. […]
Following removal of supernatant samples, compound cytotoxicity was measured by addition of MTS to the plates for determination of cell viability. […]
At assay termination, assay plates were stained with the soluble tetrazolium-based dye MTS (CellTiter 96 Reagent, Promega) to determine cell viability and quantify compound toxicity. […] This allows the rapid quantitative analysis of cell viability and compound cytotoxicity. […]

HBV = assay: Primary anti-HBV assay, extracellular HBV DNA by real-time qPCR from HepG2 2.2.15 cells; assay type: cell-based, HBV wild-type strain ayw1
Procedure: The primary anti-HBV assay was performed by using real-time qPCR (TaqMan) to measure extracellular HBV DNA copy number associated with virions released from HepG2 2.2.15 cells. The HepG2 2.2.15 cell line was a stable human hepatoblastoma cell line that contains two copies of the HBV wild-type strain ayw1 genome and constitutively produces high levels of HBV. Antiviral compounds blocking any […] step of viral replication such as transcription, translation, pregenome encapsidation, reverse transcription, particle assembly and release can be identified and characterized using this cell line. Briefly, HepG2 2.2.15 cells were plated in 96-well microtiter plates at 1.5×10^4 cells/well in Dulbecco's Modified Eagle's Medium supplemented with 2% FBS, 380 μg/mL G418, 2.0 mM L-Glutamine, 100 units/mL Penicillin, 100 μg/mL Streptomycin, and 0.1 mM non-essential amino acids. Only the interior wells were utilized to reduce “edge effects” observed during cell culture; the exterior wells were filled with complete medium to help minimize sample evaporation. After 16-24 hours the confluent monolayer of HepG2 2.2.15 cells was washed and the medium was replaced with complete medium containing various concentrations of a test compound in triplicate. Lamivudine (3TC) was used as the positive control, while media alone was added to cells as a negative control (virus control, VC). Three days later the culture medium was replaced with fresh medium containing the appropriately diluted test compounds. Six days following the initial administration of the test compound, the cell culture supernatant was collected, treated with pronase and then used in a real-time quantitative TaqMan qPCR assay. The PCR-amplified HBV DNA was detected in real-time by monitoring increases in fluorescent signal that result from the exonucleolytic degradation of a quenched fluorescent probe molecule that hybridizes to the amplified HBV DNA. […] Antiviral activity was calculated from the reduction in HBV DNA levels (EC50 values determined). […] The Selectivity Index was calculated as CC50/EC50.

## C[C@H](Cn1cnc2c(N)ncnc21)OCP(=O)(OCOC(=O)C(C)(C)C)Oc1ccccc1 (stereo partly drawn) [((((((R)-1-(6-amino-9H-purin-9-yl)propan-2-yl)oxy)methyl)(phenoxy)phosphoryl)oxy)methyl pivalate fumarate]
[1]
  CC50: 27.7 µM
HBV; CC50/EC50, HepG2 2.2.15 cells
  Selectivity Index: >1250
HBV; HepG2 2.2.15 cells
  Conclusion: activity against HBV: potently active
HBV; Hepatitis B virus, 144 h, reduction in extracellular HBV DNA, HepG2 2.2.15 cells, six days
  EC50: 0.08 µM
